Where a name gives a salt, the structure may show the parent alone.
What was measured:
[1] = biological target: c-Met enzyme (Homo sapiens (Human), UniProt P08581); experiment: c-Met kinase inhibitory activity (DELFIA time-resolved fluorescence); type: biochemical; details: c-Met kinase activity reduced to 50%
Procedure: The c-Met kinase inhibitory activity was analyzed using dissociation enhanced lanthanide fluoro-immunoassay (DELFIA, Perkin Elmer), which is a kind of time-resolved fluorescence (TRF). […] of the compound prepared in the present invention, as a test compound, was put in a Greiner 96-well V-shaped bottom plate, and a tyrosin kinase buffer ([…]) mixed with a c-Met enzyme was added thereto, and then the enzyme and the test compound were stirred for 15 minutes, followed by culturing. An ATP solution ([…]) was added thereto to proceed with a kinase reaction at room temperature for 30 minutes, and then a 50 mM […] solution (EDTA, […]) was added to stop the reaction. After that, the reaction mixture was transferred to a plate coated with Streptavidin, followed by culturing under shaking. After 2 hours, the cultured material was washed three times with a PBS-T buffer (PBS 0.05% Tween 20).
The europium-labeled anti-phosphotyrosine antibody was diluted to 1:[…] of the diluent was added per well, followed by culturing under shaking. After 1 hour, the cultured material was washed three times with a PBS-T buffer (PBS 0.05% Tween 20).

[2] = test system: gastric cancer cell line Hs746T; experiment: Cancer cell proliferation inhibitory test (SRB or MTS assay, 72 hours); type: cell-based; details: Homo sapiens, cancer cell (Hs746T) proliferation inhibition, culturing with compound for 72 hours
Procedure: The drug used in the test was diluted to a desired concentration as a test medium, and the final concentration of dimethyl sulfoxide was 0.5% or less.
All the cancer cell lines used in the test originated from the human body, and gastric cancer cell lines Hs746T and MKN-45 were used.
5×10^3 cells of Hs746T were dispensed to each well of the 96-well flat bottom micro-plate. MKN-45 was dispensed at 1×10^4 cells. The cells were cultured for 24 hours, so that the cells adhered to the bottom, and then the culture liquid was removed. The culture liquid containing each of the compounds of the present invention was added, followed by culturing for 72 hours. After the culturing with the compound was completed, the cytotoxicity was measured using protein stain reagent SRB or MTS assay.
Specifically, after the culturing with the compound of the present invention was completed, the cultured liquid was removed. Each well was treated with a cool TCA solution, and allowed to stand at 4° C. for 1 hour to fix cells. The TCA solution was removed, followed by drying at room temperature, and then a stain solution containing 0.4% SRB dissolved in 1% acetic acid solution was added, and then the mixture was allowed to stand for 30 minutes to stain cells. […] The absorbance of each well was measured at a wavelength range of 520 nm using an Eliza reader (micro-plate reader).
The drug cytotoxicity was measured from the OD values for the well added without the drug (C), each well added with the drug (T), and the well initially added with the drug (Tz): [(T−Tz)/(C−Tz)]×100 for […]; or [(T−Tz)/(Tz)]×100 for Tz>T.
The cancer cell inhibitory activity measurement using MTS assay was conducted as follows. Specifically, after the culturing with the compound of the present invention was completed, the PMS solution and MTS solution constituting the CellTiter 96® AQueous Non-Radioactive Cell Proliferation Assay product from Promega Co. were mixed, and 20 μL was put into each well. After the cells were placed in an incubator for 4 hours, and then taken out and allowed to stand at room temperature for 10 minutes.

Chain of c-Met enzyme (P08581 25-1390): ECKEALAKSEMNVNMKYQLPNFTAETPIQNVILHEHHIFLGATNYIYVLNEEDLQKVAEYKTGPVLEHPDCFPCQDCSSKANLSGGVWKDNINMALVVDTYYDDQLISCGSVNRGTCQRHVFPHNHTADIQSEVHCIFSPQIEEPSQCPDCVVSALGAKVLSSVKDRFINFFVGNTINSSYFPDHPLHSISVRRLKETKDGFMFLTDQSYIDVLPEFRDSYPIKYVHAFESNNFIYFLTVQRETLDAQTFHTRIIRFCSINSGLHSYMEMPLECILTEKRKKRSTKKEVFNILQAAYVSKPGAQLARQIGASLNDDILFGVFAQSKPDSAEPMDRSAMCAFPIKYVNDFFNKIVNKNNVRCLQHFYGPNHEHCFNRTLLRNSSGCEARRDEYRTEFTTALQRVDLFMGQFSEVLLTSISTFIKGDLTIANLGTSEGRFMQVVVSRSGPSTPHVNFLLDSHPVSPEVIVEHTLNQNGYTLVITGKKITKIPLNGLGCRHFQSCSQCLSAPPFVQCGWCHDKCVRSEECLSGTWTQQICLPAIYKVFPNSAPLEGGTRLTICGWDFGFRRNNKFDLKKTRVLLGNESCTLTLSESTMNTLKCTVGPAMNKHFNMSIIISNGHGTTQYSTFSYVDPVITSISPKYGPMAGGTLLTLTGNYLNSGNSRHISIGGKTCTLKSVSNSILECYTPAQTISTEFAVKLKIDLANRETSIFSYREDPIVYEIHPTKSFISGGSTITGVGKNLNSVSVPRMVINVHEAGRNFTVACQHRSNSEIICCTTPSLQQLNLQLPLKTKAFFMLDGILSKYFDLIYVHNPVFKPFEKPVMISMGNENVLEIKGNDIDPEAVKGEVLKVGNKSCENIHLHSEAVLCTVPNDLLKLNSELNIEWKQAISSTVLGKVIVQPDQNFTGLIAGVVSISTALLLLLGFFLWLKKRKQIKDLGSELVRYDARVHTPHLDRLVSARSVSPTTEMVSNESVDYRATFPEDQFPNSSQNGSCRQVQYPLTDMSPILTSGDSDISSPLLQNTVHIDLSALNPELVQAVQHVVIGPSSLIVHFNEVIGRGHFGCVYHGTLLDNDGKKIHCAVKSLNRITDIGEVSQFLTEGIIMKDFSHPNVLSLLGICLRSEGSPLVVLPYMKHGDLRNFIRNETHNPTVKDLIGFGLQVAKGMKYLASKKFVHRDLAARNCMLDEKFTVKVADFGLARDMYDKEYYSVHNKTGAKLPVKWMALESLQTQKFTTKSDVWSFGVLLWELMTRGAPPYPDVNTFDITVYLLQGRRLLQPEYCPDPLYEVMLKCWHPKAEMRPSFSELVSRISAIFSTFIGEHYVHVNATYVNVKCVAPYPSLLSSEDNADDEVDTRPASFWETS

IC50 [1] | IC50 [2] | SMILES
3 nM | 15 nM | CN1CC=C(c2cnc(N3CCCC(Cn4nnc5ncc(-c6cnn(C)c6)nc54)C3)nc2)CC1 (stereo not drawn) [Chemical formula 34, 1-((1-(5-(1-methyl-1,2,3,6-tetrahydropyridin-4-yl)pyrimidin-2-yl)piperidin-3-yl)methyl)-6-(1-methyl-1H-pyrazol-4-yl)-1H-[1,2,3]triazolo[4,5-b]pyrazine]
4 nM | 1.1 nM | CN1CC=C(c2cnc(N3CCO[C@H](Cn4nnc5ncc(-c6cnn(C)c6)nc54)C3)nc2)CC1 [Chemical formula 10, (S)-4-(5-(1-methyl-1,2,3,6-tetrahydropyridin-4-yl)pyrimidin-2-yl)-2-((6-(1-methyl-1H-pyrazol-4-yl)-1H-[1,2,3]triazolo[4,5-b]pyrazin-1-yl)methyl)morpholine]
8 nM | – | CN1CCN(Cc2ccc(-c3cnc(N4CCO[C@H](Cn5nnc6ncc(-c7cccc(C#N)c7)nc65)C4)nc3)cc2)CC1 [Chemical formula 49, (S)-3-(1-((4-(5-(4-((4-methylpiperazin-1-yl)methyl)phenyl)pyrimidin-2-yl)morpholin-2-yl)methyl)-1H-[1,2,3]triazolo[4,5-b]pyrazin-6-yl)benzonitrile]
3 nM | 0.93 nM | Cn1cc(-c2cnc3nnn(C[C@@H]4CN(c5ncc(-c6cnn(CCO)c6)cn5)CCO4)c3n2)cn1 [Chemical formula 11, (S)-2-(4-(2-(2-((6-(1-methyl-1H-pyrazol-4-yl)-1H-[1,2,3]triazolo[4,5-b]pyrazin-1-yl)methyl)morpholino)pyrimidin-5-yl)-1H-pyrazol-1-yl)ethanol hydrochloride]
1 nM | 0.14 nM | N#Cc1cc(-c2cnc3nnn(C[C@@H]4CN(c5ncc(-c6cnn(CCO)c6)cn5)CCO4)c3n2)ccc1F [Chemical formula 32, (S)-2-fluoro-5-(1-((4-(5-(1-(2-hydroxyethyl)-1H-pyrazol-4-yl)pyrimidin-2-yl)morpholine-2-yl)methyl)-1H-[1,2,3]triazolo[4,5-b]pyrazin-6-yl)benzonitrile]
2 nM | 1.3 nM | Cn1cc(-c2cnc3nnn(CC4CCCN(c5ncc(-c6cnn(C7CCNCC7)c6)cn5)C4)c3n2)cn1 (stereo not drawn) [Chemical formula 37, 6-(1-methyl-1H-pyrazol-4-yl)-1-((1-(5-(1-(piperidin-4-yl)-1H-pyrazol-3-yl)pyrimidin-2-yl)piperidin-3-yl)methyl)-1H-[1,2,3]triazolo[4,5-b]pyrazinehydrochloride]
8 nM | – | CC(=O)N1CCN(Cc2ccc(-c3cnc(N4CCO[C@H](Cn5nnc6ncc(-c7cnn(C)c7)nc65)C4)nc3)cc2)CC1 [Chemical formula 45, (S)-1-(4-(4-(2-(2-((6-(1-methyl-1H-pyrazol-4-yl)-1H-[1,2,3]triazolo[4,5-b]pyrazin-1-yl)methyl)morpholino)pyrimidin-5-yl)benzyl)piperazin-1-yl)ethanone]
5 nM | 5.6 nM | Cn1cc(-c2cnc3nnn(C[C@@H]4CN(c5ncc(C6CCN(CCO)CC6)cn5)CCO4)c3n2)cn1 [Chemical formula 21, (S)-2-(4-(2-(2-((6-(1-methyl-1H-pyrazol-4-yl)-1H-[1,2,3]triazolo[4,5-b]pyrazin-1-yl)methyl)morpholino)pyrimidin-5-yl)piperidin-1-yl)ethanol]
3 nM | – | N#Cc1cc(-c2cnc3nnn(C[C@@H]4CN(c5ncc(C6=CCN(CCO)CC6)cn5)CCO4)c3n2)ccc1F [Chemical formula 38, (S)-2-fluoro-5-(1-((4-(5-(1-(2-hydroxyethyl)-1,2,3,6-tetrahydropyridin-4-yl)pyrimidin-2-yl)morpholine-2-yl)methyl)-1H-[1,2,3]triazolo[4,5-b]pyrazin-6-yl)benzonitrile]
15 nM | 0.86 nM | Cn1cc(-c2cnc3nnn(C[C@@H]4CN(c5ncc(-c6ccc(OCCN7CCOCC7)c(F)c6)cn5)CCO4)c3n2)cn1 [Chemical formula 13, (S)-4-(5-(3-fluoro-4-(2-morpholinoethoxy)phenyl)pyrimidin-2-yl)-2-((6-(1-methyl-1H-pyrazol-4-yl)-1H-[1,2,3]triazolo[4,5-b]pyrazin-1-yl)methyl)morpholine]
– | 2.1 nM | Cn1cc(-c2cnc3nnn(C[C@@H]4CN(c5ncc(OCCN6CCOCC6)cn5)CCO4)c3n2)cn1 [Chemical formula 16, (S)-2-((6-(1-methyl-1H-pyrazol-4-yl)-1H-[1,2,3]triazolo[4,5-b]pyrazin-1-yl)methyl)-4-(5-(2-morpholinoethoxy)pyrimidin-2-yl)morpholine]
14 nM | 4.1 nM | Cn1cc(-c2cnc3nnn(C[C@@H]4CN(c5ncc(-c6ccc(OCCN7CCOCC7)cc6)cn5)CCO4)c3n2)cn1 [Chemical formula 14, (S)-2-((6-(1-methyl-1H-pyrazol-4-yl)-1H-[1,2,3]triazolo[4,5-b]pyrazin-1-yl)methyl)-4-(5-(4-(2-morpholinoethoxy)phenyl)pyrimidin-2-yl)morpholine]
2 nM | – | CN1CCN(Cc2ccc(-c3cnc(N4CCO[C@H](Cn5nnc6ncc(-c7ccc(F)c(C#N)c7)nc65)C4)nc3)cc2F)CC1 [Chemical formula 39, (S)-2-fluoro-5-(1-((4-(5-(3-fluoro-4-((4-methylpiperazin-1-yl)methyl)phenyl)pyrimidin-2-yl)morpholine-2-yl)methyl)-1H-[1,2,3]triazolo[4,5-b]pyrazin-6-yl)benzonitrile]
4 nM | – | Cn1cc(-c2cnc3nnn(C[C@@H]4CN(c5ncc(-c6ccc(CN7CCOCC7)c(F)c6)cn5)CCO4)c3n2)cn1 [Chemical formula 42, (S)-4-(5-(3-fluoro-4-(morpholinomethyl)phenyl)pyrimidin-2-yl)-2-((6-(1-methyl-1H-pyrazol-4-yl)-1H-[1,2,3]triazolo[4,5-b]pyrazin-1-yl)methyl)morpholine]
2 nM | – | CN1CCN(Cc2ccc(-c3cnc(N4CCO[C@H](Cn5nnc6ncc(-c7cnn(C)c7)nc65)C4)nc3)cc2F)CC1 [Chemical formula 40, (S)-4-(5-(3-fluoro-4-((4-methylpiperazin-1-yl)methyl)phenyl)pyrimidin-2-yl)-2-((6-(1-methyl-1H-pyrazol-4-yl)-1H-[1,2,3]triazolo[4,5-b]pyrazin-1-yl)methyl)morpholine]
6 nM | – | CN1CCN(C(=O)c2ccc(-c3cnc(N4CCC[C@H](Cn5nnc6ncc(-c7cnn(C)c7)nc65)C4)nc3)cc2)CC1 [Chemical formula 48, (S)-(4-(2-(3-((6-(1-methyl-1H-pyrazol-4-yl)-1H-[1,2,3]triazolo[4,5-b]pyrazin-1-yl)methyl)piperidin-1-yl)pyrimidin-5-yl)phenyl)(4-methylpiperazin-1-yl)methanone]
2 nM | 0.18 nM | N#Cc1cccc(-c2cnc3nnn(C[C@@H]4CN(c5ncc(-c6cnn(CCO)c6)cn5)CCO4)c3n2)c1 [Chemical formula 31, (S)-3-(1-((4-(5-(1-(2-hydroxyethyl)-1H-pyrazol-4-yl)pyrimidin-2-yl)morpholin-2-yl)methyl)-1H-[1,2,3]triazolo[4,5-b]pyrazin-6-yl)benzonitrile]
6 nM | – | CN1CCN(CCOc2ccc(-c3cnc(N4CCO[C@H](Cn5nnc6ncc(-c7cnn(C)c7)nc65)C4)nc3)cc2)CC1 [Chemical formula 15, (S)-2-((6-(1-methyl-1H-pyrazol-4-yl)-1H-[1,2,3]triazolo[4,5-b]pyrazin-1-yl)methyl)-4-(5-(4-(2-(4-methylpiperazin-1-yl)ethoxy)phenyl)pyrimidin-2-yl)morpholine]
13 nM | – | CN1CCN(C(=O)c2ccc(-c3cnc(N4CCO[C@H](Cn5nnc6ncc(-c7cnn(C)c7)nc65)C4)nc3)cc2)CC1 [Chemical formula 47, (S)-(4-(2-(2-((6-(1-methyl-1H-pyrazol-4-yl)-1H-[1,2,3]triazolo[4,5-b]pyrazin-1-yl)methyl)morpholino)pyrimidin-5-yl)phenyl)(4-methylpiperazin-1-yl) methanone]

SMILES | IC50 [1] | IC50 [2]
Cn1cc(-c2cnc3nnn(C[C@@H]4CN(c5ncc(C6=CCNCC6)cn5)CCO4)c3n2)cn1 [Chemical formula 9, (S)-2-((6-(1-methyl-1H-pyrazol-4-yl)-1H-[1,2,3]triazolo[4,5-b]pyrazin-1-yl)methyl)-4-(5-(1,2,3,6-tetrahydropyridin-4-yl)pyrimidin-2-yl)morpholine hydrochloride] | 3 nM | 0.95 nM
